From ChEMBL document CHEMBL5104121, “Stereoisomeric Pam2CS based TLR2 agonists: synthesis, structural modelling and activity as vaccine adjuvants” (RSC Med Chem, 2022)
Calls of active or inactive are those of the source. The rule behind the calls is not given here. Where a SMILES comes first, the peptide text is derived from it. The star is where a group is joined. Propyl(2R-PamO,3-PamO) = CCCCCCCCCCCCCCCC(=O)OC[C@H](C*)OC(=O)CCCCCCCCCCCCCCC; Palmitoyl = CCCCCCCCCCCCCCCC(=O)*

Tests used:
TLR2/TLR6 [1] = biological target: T1, TLR2/TLR6 (Homo sapiens, UniProt O60603+Q9Y2C9); experiment: Agonist activity at human TLR2/TLR6 expressed in HEK-Blue hTLR2-TLR6 cells by SEAP reporter gene based Quanti-blue assay; type: cell-based
TLR2/TLR6 [2] = biological target: T1, TLR2/TLR6; experiment: Agonist activity at TLR2/TLR6 in human PBMC cells assessed as increase in IL-6 production at 0.1 ug/ml incubated for 24 hrs; type: cell-based; details: filed as agonist, dose 0.1 µg/ml
TLR2/TLR6 [3] = biological target: T1, TLR2/TLR6; experiment: Agonist activity at TLR2/TLR6 in human PBMC cells assessed as increase in TNF-alpha production at 0.1 ug/ml incubated for 24 hrs; type: cell-based; details: filed as agonist, dose 0.1 µg/ml
Mus musculus [4] = experiment: Protection against influenza A/California/04/2009 virus-challenged C57BL/6 mouse assessed as effect on body weight at 10 ug, IM administered twice 2 weeks apart along with recombinant influenza A/California/04/2009 HA protein immunization; type: functional, organism-based; details: dose 10.0 µg
TLR2/TLR6 [5] = biological target: T1, TLR2/TLR6; experiment: Agonist activity at TLR2/TLR6 in human PBMC cells assessed as increase in IL-10 production at 0.1 ug/ml incubated for 24 hrs; type: cell-based; details: filed as agonist, dose 0.1 µg/ml
Mus musculus [6] = experiment: Protection against influenza A/California/04/2009 virus-challenged C57BL/6 mouse assessed as effect on survival at 10 ug, IM administered twice 2 weeks apart along with recombinant influenza A/California/04/2009 HA protein immunization; type: functional, organism-based; details: dose 10.0 µg
Mus musculus [7] = experiment: Immuno-adjuvant activity in C57BL/6 mouse immunized with recombinant influenza A/California/04/2009 HA protein assessed as increase in anti-HAs antibody at 10 ug, IM administered twice 2 weeks apart by ELISA analysis; type: functional, organism-based; details: dose 10.0 µg
Mus musculus [8] = experiment: Immuno-adjuvant activity in C57BL/6 mouse immunized with recombinant hepatitis B surface antigen assessed as increase in IgG2/IgG1 ratio at 10 ug, IM administered twice 2 weeks apart by ELISA analysis; type: functional, organism-based; details: dose 10.0 µg
Mus musculus [9] = experiment: Immuno-adjuvant activity in C57BL/6 mouse immunized with recombinant hepatitis B surface antigen assessed as increase in anti-HBs antibody at 10 ug, IM administered twice 2 weeks apart by ELISA analysis; type: functional, organism-based; details: dose 10.0 µg
TLR2/TLR6 (Mus musculus) [10] = biological target: T2, TLR2/TLR6 (Mus musculus) (UniProt Q9QUN7+Q9EPW9); experiment: Agonist activity at TLR2/TLR6 in C57BL/6 mouse spleen B cells assessed as increase in CD40 expression at 10 to 0.1 ug/ml incubated for 24 hrs by fluorescence based flow cytometric analysis; type: tissue-based; details: B cell, filed as agonist, dose 10-0.1 µg/ml
TLR2/TLR6 (Mus musculus) [11] = biological target: T2, TLR2/TLR6 (Mus musculus); experiment: Agonist activity at TLR2/TLR6 in C57BL/6 mouse spleen dendritic cells assessed as increase in CD40 expression at 10 to 0.1 ug/ml incubated for 24 hrs by fluorescence based flow cytometric analysis; type: tissue-based; details: Dendritic cell, filed as agonist, dose 10-0.1 µg/ml
TLR2/TLR6 (Mus musculus) [12] = biological target: T2, TLR2/TLR6 (Mus musculus); experiment: Agonist activity at TLR2/TLR6 in C57BL/6 mouse spleen B cells assessed as increase in CD86 expression at 10 to 0.1 ug/ml incubated for 24 hrs by fluorescence based flow cytometric analysis; type: tissue-based; details: B cell, filed as agonist, dose 10-0.1 µg/ml
TLR2/TLR6 (Mus musculus) [13] = biological target: T2, TLR2/TLR6 (Mus musculus); experiment: Agonist activity at TLR2/TLR6 in C57BL/6 mouse spleen dendritic cells assessed as increase in CD86 expression at 10 to 0.1 ug/ml incubated for 24 hrs by fluorescence based flow cytometric analysis; type: tissue-based; details: Dendritic cell, filed as agonist, dose 10-0.1 µg/ml
TLR2/TLR6 (Mus musculus) [14] = biological target: T2, TLR2/TLR6 (Mus musculus); experiment: Agonist activity at TLR2/TLR6 in C57BL/6 mouse spleen B cells assessed as increase in CD86 expression incubated for 24 hrs by fluorescence based flow cytometric analysis; type: tissue-based; details: B cell, filed as agonist, dose 10-0.1 µg/ml, DDE = dose-dependent effect
TLR2/TLR6 (Mus musculus) [15] = biological target: T2, TLR2/TLR6 (Mus musculus); experiment: Agonist activity at TLR2/TLR6 in C57BL/6 mouse spleen dendritic cells assessed as increase in CD40 expression incubated for 24 hrs by fluorescence based flow cytometric analysis; type: tissue-based; details: Dendritic cell, filed as agonist, dose 10-0.1 µg/ml, DDE = dose-dependent effect
TLR2/TLR6 (Mus musculus) [16] = biological target: T2, TLR2/TLR6 (Mus musculus); experiment: Agonist activity at TLR2/TLR6 in C57BL/6 mouse spleen B cells assessed as increase in CD40 expression incubated for 24 hrs by fluorescence based flow cytometric analysis; type: tissue-based; details: B cell, filed as agonist, dose 10-0.1 µg/ml, DDE = dose-dependent effect
TLR2/TLR6 (Mus musculus) [17] = biological target: T2, TLR2/TLR6 (Mus musculus); experiment: Agonist activity at TLR2/TLR6 in C57BL/6 mouse spleen dendritic cells assessed as increase in CD86 expression incubated for 24 hrs by fluorescence based flow cytometric analysis; type: tissue-based; details: Dendritic cell, filed as agonist, dose 10-0.1 µg/ml, DDE = dose-dependent effect

T1 sequence (O60603 whole entry): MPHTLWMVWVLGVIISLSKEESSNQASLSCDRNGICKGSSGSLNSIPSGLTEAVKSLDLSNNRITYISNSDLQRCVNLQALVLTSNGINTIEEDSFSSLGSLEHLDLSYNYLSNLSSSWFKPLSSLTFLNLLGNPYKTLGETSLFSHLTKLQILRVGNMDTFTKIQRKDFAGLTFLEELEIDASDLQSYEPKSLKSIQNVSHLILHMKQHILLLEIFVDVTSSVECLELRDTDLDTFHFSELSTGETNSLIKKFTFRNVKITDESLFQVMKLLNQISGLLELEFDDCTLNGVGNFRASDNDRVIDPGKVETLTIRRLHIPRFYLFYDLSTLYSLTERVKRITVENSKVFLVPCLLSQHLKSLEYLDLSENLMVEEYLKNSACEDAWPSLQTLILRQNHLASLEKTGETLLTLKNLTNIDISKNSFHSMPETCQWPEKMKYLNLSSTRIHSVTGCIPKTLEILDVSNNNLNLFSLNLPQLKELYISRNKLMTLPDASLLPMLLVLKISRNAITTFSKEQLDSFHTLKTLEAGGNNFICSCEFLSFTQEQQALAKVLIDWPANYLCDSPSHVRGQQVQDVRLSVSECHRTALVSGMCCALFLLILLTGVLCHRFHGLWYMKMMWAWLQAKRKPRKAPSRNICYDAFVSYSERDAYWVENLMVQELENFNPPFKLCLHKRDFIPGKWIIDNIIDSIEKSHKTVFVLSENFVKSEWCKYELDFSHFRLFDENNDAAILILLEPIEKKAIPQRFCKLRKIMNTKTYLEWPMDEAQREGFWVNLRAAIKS
T1 sequence (Q9Y2C9 whole entry): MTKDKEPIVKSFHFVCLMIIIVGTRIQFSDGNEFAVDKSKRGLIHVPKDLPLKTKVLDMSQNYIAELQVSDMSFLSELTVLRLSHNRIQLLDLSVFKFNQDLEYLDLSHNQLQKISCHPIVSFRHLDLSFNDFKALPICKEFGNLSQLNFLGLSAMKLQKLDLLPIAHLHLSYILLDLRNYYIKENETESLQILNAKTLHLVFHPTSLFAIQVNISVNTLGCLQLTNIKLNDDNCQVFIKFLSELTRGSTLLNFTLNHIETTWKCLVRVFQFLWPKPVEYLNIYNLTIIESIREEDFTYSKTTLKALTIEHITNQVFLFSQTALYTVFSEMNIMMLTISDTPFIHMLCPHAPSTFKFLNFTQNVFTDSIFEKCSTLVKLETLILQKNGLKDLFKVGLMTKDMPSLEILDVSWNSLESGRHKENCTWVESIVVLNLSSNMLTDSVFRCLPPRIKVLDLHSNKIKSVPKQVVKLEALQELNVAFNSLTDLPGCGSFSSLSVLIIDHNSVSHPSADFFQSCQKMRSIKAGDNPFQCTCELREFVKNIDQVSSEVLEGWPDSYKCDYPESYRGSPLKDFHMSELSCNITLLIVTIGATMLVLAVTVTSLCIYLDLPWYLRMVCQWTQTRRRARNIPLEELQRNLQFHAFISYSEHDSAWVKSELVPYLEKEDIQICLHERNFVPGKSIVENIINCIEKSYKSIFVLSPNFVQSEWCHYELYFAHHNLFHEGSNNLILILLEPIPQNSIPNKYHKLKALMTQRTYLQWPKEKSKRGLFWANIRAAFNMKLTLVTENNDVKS

SMILES | EC50 (TLR2/TLR6 [1]) [µM] | Activity (TLR2/TLR6 [2]) | Activity (TLR2/TLR6 [3]) | Activity (TLR2/TLR6 [5]) | Activity (Mus musculus [9]) | further results
CCCCCCCCCCCCCCCC(=O)OCC(CSC[C@H](N)C(=O)N[C@@H](CO)C(=O)OC)OC(=O)CCCCCCCCCCCCCCC (mixture of isomers) | 0.001 | Active | Active | Active | – | Activity (Mus musculus [4]): Active; Activity (Mus musculus [6]): Active; Activity (Mus musculus [7]): Active
CCCCCCCCCCCCCCCC(=O)OC[C@@H](CSC[C@H](NC(C)=O)C(=O)N[C@@H](CO)C(=O)OC)OC(=O)CCCCCCCCCCCCCCC | 0.252 | Active | Active | Active | – | –
CCCCCCCCCCCCCCCC(=O)OC[C@H](CSC[C@H](NC(C)=O)C(=O)N[C@@H](CO)C(=O)OC)OC(=O)CCCCCCCCCCCCCCC | 0.0008 | Active | Active | Active | Active | Activity (Mus musculus [4]): Active; Activity (Mus musculus [8]): Active; Activity (Mus musculus [6]): Active; Activity (Mus musculus [7]): Active
CCCCCCCCCCCCCCCC(=O)OCC(CSC[C@H](NC(=O)OC(C)(C)C)C(=O)N[C@@H](COC(C)(C)C)C(=O)OC)OC(=O)CCCCCCCCCCCCCCC (mixture of isomers) | 5.64 | – | – | – | – | –
CCCCCCCCCCCCCCCC(=O)OC[C@H](CSC[C@H](N)C(=O)N[C@@H](CO)C(=O)N[C@@H](CCCCN)C(=O)N[C@@H](CCCCN)C(=O)N[C@@H](CCCCN)C(=O)N[C@@H](CCCCN)C(=O)O)OC(=O)CCCCCCCCCCCCCCC (H-C(Propyl(2R-PamO,3-PamO))SKKKK-OH) | 0.0003 | Active | Active | Active | Active | Activity (TLR2/TLR6 (Mus musculus) [10]): Active; Activity (TLR2/TLR6 (Mus musculus) [11]): Active; Activity (TLR2/TLR6 (Mus musculus) [12]): Active; Activity (TLR2/TLR6 (Mus musculus) [13]): Active
CCCCCCCCCCCCCCCC(=O)OC[C@H](CSC[C@H](N)C(=O)N[C@@H](CO)C(=O)OC)OC(=O)CCCCCCCCCCCCCCC | 0.0004 | Active | Active | Active | Active | Activity (TLR2/TLR6 (Mus musculus) [14]): Dde; Activity (TLR2/TLR6 (Mus musculus) [15]): Dde; Activity (Mus musculus [4]): Active; Activity (TLR2/TLR6 (Mus musculus) [16]): Dde; Activity (Mus musculus [8]): Active; Activity (TLR2/TLR6 (Mus musculus) [17]): Dde; Activity (Mus musculus [6]): Active; Activity (Mus musculus [7]): Active
CCCCCCCCCCCCCCCC(=O)OCC(CSC[C@H](NC(C)=O)C(=O)N[C@@H](CO)C(=O)OC)OC(=O)CCCCCCCCCCCCCCC (mixture of isomers) | 0.005 | Active | Active | Active | – | –
CCCCCCCCCCCCCCCC(=O)N[C@@H](CSC[C@@H](COC(=O)CCCCCCCCCCCCCCC)OC(=O)CCCCCCCCCCCCCCC)C(=O)N[C@@H](CO)C(=O)N[C@@H](CCCCN)C(=O)N[C@@H](CCCCN)C(=O)N[C@@H](CCCCN)C(=O)N[C@@H](CCCCN)C(=O)O (Palmitoyl-C(Propyl(2R-PamO,3-PamO))SKKKK-OH) | 0.0193 | Active | Active | Active | Active | Activity (TLR2/TLR6 (Mus musculus) [10]): Active; Activity (TLR2/TLR6 (Mus musculus) [11]): Active; Activity (TLR2/TLR6 (Mus musculus) [12]): Active; Activity (TLR2/TLR6 (Mus musculus) [13]): Active
CCCCCCCCCCCCCCCC(=O)OC[C@H](CSC[C@H](NC(=O)OC(C)(C)C)C(=O)N[C@@H](COC(C)(C)C)C(=O)OC)OC(=O)CCCCCCCCCCCCCCC | 5.87 | – | – | – | – | Activity (TLR2/TLR6 (Mus musculus) [12]): Active; Activity (TLR2/TLR6 (Mus musculus) [13]): Active
CCCCCCCCCCCCCCCC(=O)OC[C@@H](CSC[C@H](N)C(=O)N[C@@H](CO)C(=O)OC)OC(=O)CCCCCCCCCCCCCCC | 0.134 | – | – | – | – | Activity (TLR2/TLR6 (Mus musculus) [14]): Dde; Activity (TLR2/TLR6 (Mus musculus) [15]): Dde; Activity (TLR2/TLR6 (Mus musculus) [16]): Dde; Activity (TLR2/TLR6 (Mus musculus) [17]): Dde
CCCCCCCCCCCCCCCC(=O)OC[C@@H](CSC[C@H](NC(=O)OC(C)(C)C)C(=O)N[C@@H](COC(C)(C)C)C(=O)OC)OC(=O)CCCCCCCCCCCCCCC | 4.27 | – | – | – | – | –
